# Data as given in patent publication US20220192978A1, “Pharmaceutical Inhalation Aerosol and Preparation Method Therefor” (CF PharmTech, Inc., priority 2019, published 2022).
# Counter-ions that a name gives are not always drawn.
# How the values were obtained:
# [1] = particle size test of micronized powder (D10, D50, D90, SPAN); assay type: physicochemical; conditions: fine powder used for direct mixing
# Source text: In the invention, D90 is described as the volume of particles smaller than a certain particle size (x) accounts for 90% of the total volume of the particles, D50 is described as the volume of particles smaller than a certain particle size (x) accounts for 50% of the total volume of the particles, and D10 is described as the volume of particles smaller than a certain particle size (x) accounts for 10% of the total volume of the particles.
# The pressure of the jet mill was decreased and the above steps were repeated, in order to investigate the effect of pressure (10 bar, 8 bar, 4 bar, 3 bar, 2 bar) on the particle size of the glycopyrronium bromide/indacaterol maleate mixture, the Fine Particle Fraction of glycopyrronium bromide and the degree of co-deposition of the two active ingredients.
# [2] = Anderson cascade impactor (ACI) test of the inhalation aerosol (deposition rate per plate, FPF); assay type: physicochemical; conditions: for Fine Particle Fraction (FPF) (lung): in single or compound preparations (MDI); for FPF of glycopyrronium bromide (%) / FPF of indacaterol maleate (%): inhalation aerosol prepared directly from micronized powder(s), no co-micronization; for Fine Particle Fraction (in words): prepared as a suspension-type inhalation aerosol
# Procedure: Prescription amounts of glycopyrronium bromide and indacaterol maleate were added to an aluminum can, valve-sealed, and filled with propellant, HFA-134a. After being inverted for 2 days, it was tested according to 0951, volume IV general rules of the Pharmacopoeia of the People's Republic of China 2015 Edition. The sum of the deposition from the stage plate 3 to the filter membrane is the Fine Particle Dose (FPD). The FPD (less than 5 μm) divided by the total amount collected by the Anderson cascade impactor (Total Dose, TD) is the Fine Particle Fraction (FPF).
# Micronized powders were precisely weighed and placed in a 14 mL fluorocarbon polymerization (FCP)-coated aluminum can, valve-sealed, filled, ultrasonicated for 10 minutes, and then kept for 2 days for Anderson cascade impactor testing. It was tested according to 0951 device 2, volume IV general rules of the Pharmacopoeia of the People's Republic of China 2015 Edition. The relative humidity of the test environment should be 45% to 55%. The flow rate was adjusted to 28.3±1.5 liters per minute. Take 1 bottle of this product, shake it sufficiently, and discard 4 sprays. Wipe the mouthpiece with ethanol, dry it sufficiently, turn on the vacuum pump, shake for 5 seconds (note that shake for 5 seconds before each spray and the interval between sprays is 30 seconds), insert the product into the adapter, and spray once immediately. After removing the aluminum can and the driver, shake for 5 seconds, reinsert into the adapter, and immediately spray the second time. Repeat this process until the completion of 10 sprays. After the last spray, wait 1 minute, then remove the aluminum can and driver, turn off the vacuum pump, and remove the device. The various plates of the Anderson impactor were washed with a specific ratio of methanol aqueous solution, and the content of the drugs deposited on each plate was determined by HPLC.
D90 [1] [μm],Fine Particle Fraction (FPF) (lung) [2],FPF of glycopyrronium bromide (%) [2] [%],FPF of glycopyrronium bromide (%) ([2]; listed as glycopyrronium bromide fine powder),Fine Particle Fraction (in words) [2],FPF of indacaterol maleate (%) [2] [%],FPF of indacaterol maleate (%) ([2]; listed as indacaterol fine powder),SMILES
3.43,15-20%,25.68,24,low,,,C[N+]1(C)CCC(OC(=O)C(O)(c2ccccc2)C2CCCC2)C1 (stereo not shown) [glycopyrronium bromide]
3.84,40-50%,,,high,45.66,45,CCc1cc2c(cc1CC)CC(NC[C@H](O)c1ccc(O)c3[nH]c(=O)ccc13)C2 [indacaterol maleate]
